Laboratory results as given in patent US20080025986A1, “Methods of Treating Tnf-Mediated Disorders” (priority 2003, published 2008).

Assays:
Assay type in all cases: cell-based
ERK = experiment: Western blot, TNF-induced ERK activation in cells; conditions: TNF cascade, P<0.01
Method: (§1) To explore the possibility that Pirfenidone could be used to treat NASH, the effects of pirfenidone on cells stimulated with Insulin in the presence or absence of TNF-α were examined.
(§2) When cells were treated with Pirfenidone, TNF-α mediated Insulin resistance was ameliorated. […] More specifically, Pirfenidone decreased ERK activation by 7-fold, p38 MAPK by 2-fold and RAF activation by 2-fold (P<0.01 for all observations). In addition, Pirfenidone decreased the TNF-α mediated phosphorylation of the transcription activation factor CREB by 2-fold (P<0.01). […] In addition, Pirfenidone increased insulin-induced phosphorylation of IRS1. […] The results are depicted in FIGS. 3 and 4. FIG. 3 depicts inhibition of MAPK by pirfenidone. FIG. 4 depicts enhancement of insulin signaling by pirfenidone.
(§3) FIG. 5 depicts various downstream signaling events that are triggered by TNF binding to a TNF receptor. TNF-mediated activation of various serine-threonine kinases are differentially affected by pirfenidone. Therefore, activation of transcription factors downstream of a given kinase will be differentially affected by pirfenidone. FIG. 6 depicts pirfenidone inhibition of TNF-induced ERK activation. FIG. 7 depicts pirfenidone inhibition of TNF-induced p38 MAPK activation. FIG. 8 depicts pirfenidone inhibition of TNF-induced activation of the transcription factor CREB. […]

p38 MAPK = experiment: Western blot, TNF-induced p38 MAPK activation in cells; conditions: TNF cascade, P<0.01
Method: as §1, §2, §3

RAF = experiment: Western blot, TNF-induced RAF kinase activation in cells; conditions: TNF cascade, P<0.01
Method: as §1, §2, §3

CREB = experiment: TNF-α mediated phosphorylation/activation of transcription factor CREB
Method: as §1, §2, §3

IRS1 = experiment: Insulin signaling in cells stimulated with insulin in the presence or absence of TNF-α
Method: as §1, §2

AKT = experiment: TNF-induced activation of AKT; conditions: FIG. 10
Source text: (§4) FIG. 5 depicts various downstream signaling events that are triggered by TNF binding to a TNF receptor. TNF-mediated activation of various serine-threonine kinases are differentially affected by pirfenidone. Therefore, activation of transcription factors downstream of a given kinase will be differentially affected by pirfenidone. FIG. 6 depicts pirfenidone inhibition of TNF-induced ERK activation. FIG. 7 depicts pirfenidone inhibition of TNF-induced p38 MAPK activation. FIG. 8 depicts pirfenidone inhibition of TNF-induced activation of the transcription factor CREB. FIG. 9 depicts pirfenidone inhibition of TNF-induced activation of RAF kinase. FIG. 10 depicts pirfenidone inhibition of TNF-induced activation of AKT. FIG. 11 depicts pirfenidone potentiation of TNF-induced JNK activation.

JNK = experiment: TNF-induced JNK activation; conditions: FIG. 11
Source text: as §4
(§5) While phosphorylation of CREB is diminished due to decreased activity of p38 in the presence of pirfenidone, phosphorylation of the JNK-phosphorylated transcription factor ATF2 is potentiated in the presence of pirfenidone. FIG. 12 depicts pirfenidone potentiation of ATF2. Thus, pirfenidone potentiates TNF-induced activation of the JNK kinase pathway.

ATF2 = experiment: Phosphorylation of JNK-phosphorylated transcription factor ATF2; conditions: FIG. 12
Source text: as §5

AP-1 = AP-1 activation

**Q.** For Cc1ccc(=O)n(-c2ccccc2)c1 [Pirfenidone, 5-methyl-1-phenyl-2-(1H)-pyridone], which “decrease of ERK activation” value (ERK) is on record?
**A.** The value was 7 fold.

**Q.** What about the “decrease of p38 MAPK activation” value (p38 MAPK) of the same compound?
**A.** Its value is 2 fold.

**Q.** What about the “decrease of RAF activation” value (RAF) of the same compound?
**A.** Its value is 2 fold.

**Q.** What about the “decrease of TNF-α mediated phosphorylation of CREB” value (CREB; P<0.01) of the same compound?
**A.** The value was 2 fold.

**Q.** And the “upper limit of inhibition of CREB activation” value (CREB; at maximal pirfenidone concentrations)?
**A.** The value was at most 75%.

**Q.** And the “effect on TNF-α mediated insulin resistance” value (IRS1; cells treated with TNF-α)?
**A.** Its value is “ameliorated”.

**Q.** What about the “effect on TNF-α-mediated inhibition of insulin-induced IRS1 tyrosine phosphorylation” value (IRS1; insulin plus TNF-α) of the same compound?
**A.** The value was “blocks”.

**Q.** And the “effect on insulin-induced phosphorylation of IRS1” value (IRS1; insulin stimulation)?
**A.** The value was “increased”.

**Q.** And the “effect on TNF-induced activation of AKT” value (AKT)?
**A.** Its value is “inhibition”.

**Q.** And the “effect on TNF-induced JNK activation” value (JNK)?
**A.** Its value is “potentiation”.

**Q.** What about the “effect on phosphorylation of ATF2” value (ATF2) of the same compound?
**A.** Its value is “potentiated”.

**Q.** And the “effect on AP-1 activation” value (AP-1)?
**A.** The value was “potentiates”.
